# Where two headings read alike, the source gives them in different places.
# Tests used:
# [1] = molecular target: T1, catalytic domain of human Bub1 (amino acids 704-1085) (Homo sapiens, UniProt O43683); experiment: Bub1 kinase assay (TR-FRET); type: biochemical
# T1 construct: catalytic domain of human Bub1 (amino acids 704-1085); His6 (N); made in house; host or cells: Hi5 insect cells
# In short: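 TR-FRET read-out (Eu-anti-mouse IgG/anti-phosphoserine antibody to streptavidin-XL665 on biotinylated peptide) after EDTA stop and 1 h complex formation at 22° C. Kinase reaction ran 60 min at 22° C with 1:3.4 serial dilutions from 2 mM DMSO stocks. IC50 from 4-parameter logistic fit of normalized inhibition.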
# Bub1 = Bub1 (Homo sapiens, UniProt O43683); experiment: Formation-Assay: phosphorylation status of histone 2A by inhibition of kinase activity of Bub1; type: cell-based; conditions: Biological Assay 4.1: H2A Formation IC50, co-treatment with Nocodazole 1 μg/ml, 16 h
# Chain of Bub1 (O43683 whole entry): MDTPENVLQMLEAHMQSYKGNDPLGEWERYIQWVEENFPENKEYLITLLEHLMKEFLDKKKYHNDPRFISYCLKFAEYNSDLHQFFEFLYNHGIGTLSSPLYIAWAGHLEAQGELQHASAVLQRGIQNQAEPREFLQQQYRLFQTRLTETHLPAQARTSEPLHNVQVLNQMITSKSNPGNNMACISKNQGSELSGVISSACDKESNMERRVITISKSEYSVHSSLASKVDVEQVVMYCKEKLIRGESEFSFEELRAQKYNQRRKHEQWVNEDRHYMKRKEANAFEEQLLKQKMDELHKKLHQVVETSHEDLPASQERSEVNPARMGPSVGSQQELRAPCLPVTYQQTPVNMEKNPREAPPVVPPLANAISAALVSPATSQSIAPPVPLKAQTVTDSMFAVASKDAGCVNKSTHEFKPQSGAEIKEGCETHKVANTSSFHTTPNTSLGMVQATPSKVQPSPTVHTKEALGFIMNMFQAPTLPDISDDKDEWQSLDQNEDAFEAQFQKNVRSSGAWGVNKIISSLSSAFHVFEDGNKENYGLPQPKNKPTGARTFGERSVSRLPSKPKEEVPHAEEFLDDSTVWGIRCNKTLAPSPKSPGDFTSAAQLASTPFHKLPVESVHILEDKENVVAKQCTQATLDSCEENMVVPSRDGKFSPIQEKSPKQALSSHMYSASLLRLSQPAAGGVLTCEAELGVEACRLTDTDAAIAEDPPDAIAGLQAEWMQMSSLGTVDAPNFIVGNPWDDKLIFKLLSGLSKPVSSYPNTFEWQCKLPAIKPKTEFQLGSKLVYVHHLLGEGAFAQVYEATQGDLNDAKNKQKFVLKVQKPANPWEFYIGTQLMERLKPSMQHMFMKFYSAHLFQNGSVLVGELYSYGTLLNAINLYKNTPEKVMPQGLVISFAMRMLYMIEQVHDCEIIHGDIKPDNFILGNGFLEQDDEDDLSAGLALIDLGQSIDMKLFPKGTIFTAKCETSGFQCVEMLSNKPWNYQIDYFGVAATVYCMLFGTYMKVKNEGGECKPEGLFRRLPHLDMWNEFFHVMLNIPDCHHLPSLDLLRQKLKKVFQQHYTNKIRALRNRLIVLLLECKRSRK
# In short: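 Cells co-treated 16 h with Nocodazole (1 μg/ml) and compound (3 nM–10 μM), then fixed and immunostained for phospho-H2A, read by infrared imaging (800 nm) normalised to cell stain (700 nm). Nocodazole-only set as 100%, untreated cells as 0%.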
# HeLa = experiment: Proliferation assay (HeLa cell line); conditions: Homo sapiens, 96 h, read-out: Biological Assay 2: Proliferation assay (HeLa cell line) median IC50;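 also: crystal violet staining of cell number, scaled between a plate stained before dosing (0%) and cells left untreated (100%), compounds tested at 0.001-10 µM, IC50 via 4-parameter fit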
# Experimental: Cultivated tumor cells (cells were ordered from ATCC, except HeLa-MaTu and HeLa-MaTu-ADR, which were ordered from EPO-GmbH, Berlin) were plated at a density of 1000 to 5000 cells/well, depending on the growth rate of the respective cell line, in a 96-well multititer plate in 200 μL of their respective growth medium supplemented 10% fetal calf serum. After 24 hours, the cells of one plate (zero-point plate) were stained with crystal violet (see below), while the medium of the other plates was replaced by fresh culture medium (200 μL), to which the test substances were added in various concentrations (0 μM, as well as in the range of 0.001-10 μM; the final concentration of the solvent dimethyl sulfoxide was 0.5%). The cells were incubated for 4 days in the presence of test substances. Cell proliferation was determined by staining the cells with crystal violet: the cells were fixed by adding 20 μL measuring point of an 11% glutaric aldehyde solution for 15 minutes at room temperature. After three washing cycles of the fixed cells with water, the plates were dried at room temperature. The cells were stained by adding 100 μL/measuring point of a 0.1% crystal violet solution (pH 3.0). After three washing cycles of the stained cells with water, the plates were dried at room temperature. The dye was dissolved by adding 100 μl/measuring point of a 10% acetic acid solution. […] The change of cell number, in percent, was calculated by normalization of the measured values to the absorbtion values of the zero-point plate (=0%) and the absorbtion of the untreated (0 μm) cells (=100%). The IC50 values were determined by means of a 4 parameter fit.
# [2] = tested on: HeLa human cervical tumor cells; experiment: Proliferation assay (HeLa+Paclitaxel); conditions: read-out: Biological Assay 3: HeLa + Paclitaxel IC50, 3 nM paclitaxel, crystal violet;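 also: compounds at 0.001-10 µM added 4 h after paclitaxel, 92 h exposure, absorbance normalized to zero-point plate (0%) and untreated cells (100%), IC50 from 4-parameter fit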
# [3] = Biological Assay 1: Bub1 kinase assay median IC50, 10 μM ATP
# [4] = 10 μM ATP, read-out: Biological Assay 1: Bub1 kinase assay median IC50
# T1 sequence (O43683 704-1085): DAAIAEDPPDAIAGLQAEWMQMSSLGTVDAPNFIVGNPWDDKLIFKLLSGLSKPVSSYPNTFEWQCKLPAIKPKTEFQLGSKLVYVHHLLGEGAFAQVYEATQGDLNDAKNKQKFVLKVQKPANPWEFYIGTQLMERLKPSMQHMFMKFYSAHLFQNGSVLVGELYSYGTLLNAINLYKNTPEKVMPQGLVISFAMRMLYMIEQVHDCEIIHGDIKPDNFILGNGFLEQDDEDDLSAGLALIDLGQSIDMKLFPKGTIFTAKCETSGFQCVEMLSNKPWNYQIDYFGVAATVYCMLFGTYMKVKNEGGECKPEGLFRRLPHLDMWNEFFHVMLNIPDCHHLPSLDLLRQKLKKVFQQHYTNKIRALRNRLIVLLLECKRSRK
Structure (SMILES),"IC50 [1, 3]",IC50 (Bub1),IC50 (HeLa),IC50 [2],"IC50 [1, 4]"
"CCOc1cc(F)c(Cn2nc(-c3nc4c(c(Nc5ccncc5)n3)CCNC4)c3ccccc32)c(F)c1 [Example 2-18-1, 2-[1-(4-ethoxy-2,6-difluorobenzyl)-1H-indazol-3-yl]-N-(pyridin-4-yl)-5,6,7,8-tetrahydropyrido[3,4-d]pyrimidin-4-amine]",6.1 nM,20 nM,1700 nM,160 nM,–
"CCOc1cc(F)c(Cn2nc(-c3nc4c(c(Nc5ccncc5)n3)CSC4)c3ccccc32)c(F)c1 [Example 2-19-1, 2-[1-(4-ethoxy-2,6-difluorobenzyl)-1H-indazol-3-yl]-N-(pyridin-4-yl)-5,7-dihydrothieno[3,4-d]pyrimidin-4-amine]",–,350 nM,1200 nM,350 nM,14 nM
"CCOc1cc(F)c(Cn2nc(-c3nc4c(c(Nc5ccnc(NC(C)=O)c5)n3)CSC4)c3ccccc32)c(F)c1 [Example 2-19-3, N-[4-({2-[1-(4-ethoxy-2,6-difluorobenzyl)-1H-indazol-3-yl]-5,7-dihydrothieno[3,4-d]pyrimidin-4-yl}amino)pyridin-2-yl]acetamide]",8.9 nM,340 nM,2100 nM,610 nM,–
"CCOc1cc(F)c(Cn2nc(-c3nc4c(c(Nc5ccnc(C)c5)n3)CSC4)c3ccccc32)c(F)c1 [Example 2-19-4, 2-[1-(4-ethoxy-2,6-difluorobenzyl)-1H-indazol-3-yl]-N-(2-methylpyridin-4-yl)-5,7-dihydrothieno[3,4-d]pyrimidin-4-amine]",–,45 nM,1200 nM,130 nM,68 nM
"CCOc1cc(F)c(Cn2nc(-c3nc4c(c(Nc5ccnc(OC)c5)n3)CCC4)c3ccccc32)c(F)c1 [Example 2-19-7, 2-[1-(4-ethoxy-2,6-difluorobenzyl)-1H-indazol-3-yl]-N-(2-methoxypyridin-4-yl)-6,7-dihydro-5H-cyclopenta[d]pyrimidin-4-amine]",–,21 nM,> 10000 nM,540 nM,57 nM
"CCOc1cc(F)c(Cn2nc(-c3nc4c(c(Nc5ccnc(C(F)F)c5)n3)CCC4)c3ccccc32)c(F)c1 [Example 2-19-8, N-[2-(difluoromethyl)pyridin-4-yl]-2-[1-(4-ethoxy-2,6-difluorobenzyl)-1H-indazol-3-yl]-6,7-dihydro-5H-cyclopenta[d]pyrimidin-4-amine]",–,2500 nM,> 10000 nM,440 nM,8.1 nM
"CCOc1cc(F)c(Cn2nc(-c3nc(CN4CCOCC4)cc(Nc4ccnc(C)c4)n3)c3ccccc32)c(F)c1 [Example 2-19-9, 2-[1-(4-ethoxy-2,6-difluorobenzyl)-1H-indazol-3-yl]-N-(2-methylpyridin-4-yl)-6-(morpholin-4-ylmethyl)pyrimidin-4-amine]",–,18 nM,1300 nM,75 nM,23 nM
"CCOc1cc(F)c(Cn2nc(-c3nc(CN4CCOCC4)cc(Nc4ccnc(NC(=O)C5CC5)c4)n3)c3ccccc32)c(F)c1 [Example 2-19-11, N-[4-({2-[1-(4-ethoxy-2,6-difluorobenzyl)-1H-indazol-3-yl]-6-(morpholin-4-ylmethyl)pyrimidin-4-yl}amino)pyridin-2-yl]cyclopropanecarboxamide]",–,180 nM,1800 nM,130 nM,9.1 nM
"CCOc1cc(F)c(Cn2nc(-c3nc(CN4CCOCC4)cc(Nc4ccncc4F)n3)c3ccccc32)c(F)c1 [Example 2-19-12, 2-[1-(4-ethoxy-2,6-difluorobenzyl)-1H-indazol-3-yl]-N-(3-fluoropyridin-4-yl)-6-(morpholin-4-ylmethyl)pyrimidin-4-amine]",–,63 nM,4000 nM,250 nM,11 nM
"CCOc1cc(F)c(Cn2nc(-c3nc(CN4CCOCC4)cc(Nc4ccncc4OC)n3)c3ccccc32)c(F)c1 [Example 2-19-13, 2-[1-(4-ethoxy-2,6-difluorobenzyl)-1H-indazol-3-yl]-N-(3-methoxypyridin-4-yl)-6-(morpholin-4-ylmethyl)pyrimidin-4-amine]",–,3800 nM,3400 nM,130 nM,7.7 nM
"CCOc1cc(F)c(Cn2nc(-c3nc4c(c(Nc5ccncc5OC)n3)COC4)c3ccccc32)c(F)c1 [Example 2-19-17, 2-[1-(4-ethoxy-2,6-difluorobenzyl)-1H-indazol-3-yl]-N-(3-methoxypyridin-4-yl)-5,7-dihydrofuro[3,4-d]pyrimidin-4-amine]",–,7100 nM,1500 nM,140 nM,18 nM
"CCOc1cc(F)c(Cn2nc(-c3nc4c(c(Nc5ccnc(C(F)F)c5)n3)CCCC4)c3ccccc32)c(F)c1 [Example 2-19-19, N-[2-(difluoromethyl)pyridin-4-yl]-2-[1-(4-ethoxy-2,6-difluorobenzyl)-1H-indazol-3-yl]-5,6,7,8-tetrahydroquinazolin-4-amine]",–,7.3 nM,> 10000 nM,690 nM,19 nM
"CCOc1cc(F)c(Cn2nc(-c3nc4c(c(Nc5ccncc5C)n3)CCCC4)c3ccccc32)c(F)c1 [Example 2-19-20, 2-[1-(4-ethoxy-2,6-difluorobenzyl)-1H-indazol-3-yl]-N-(3-methylpyridin-4-yl)-5,6,7,8-tetrahydroquinazolin-4-amine]",–,49 nM,5200 nM,120 nM,7 nM
"CCOc1cc(F)c(Cn2nc(-c3ncc(C4CCN(CC(F)(F)F)CC4)c(Nc4ccnc(NC(C)=O)c4)n3)c3ccccc32)c(F)c1 [Example 2-20-1, N-[4-({2-[1-(4-ethoxy-2,6-difluorobenzyl)-1H-indazol-3-yl]-5-[1-(2,2,2-trifluoroethyl)piperidin-4-yl]pyrimidin-4-yl}amino)pyridin-2-yl]acetamide]",17 nM,110 nM,> 10000 nM,130 nM,–
"CCOc1cc(F)c(Cn2nc(-c3ncc(C4CCN(CC(F)(F)F)CC4)c(Nc4ccnc(C)n4)n3)c3ccccc32)c(F)c1 [Example 2-20-2, 2-[1-(4-ethoxy-2,6-difluorobenzyl)-1H-indazol-3-yl]-N-(2-methylpyrimidin-4-yl)-5-[1-(2,2,2-trifluoroethyl)piperidin-4-yl]pyrimidin-4-amine]",51 nM,9.1 nM,> 10000 nM,260 nM,–
"CCOc1cc(F)c(Cn2nc(-c3ncc(C4CCN(CC(F)(F)F)CC4)c(Nc4ccncn4)n3)c3ccccc32)c(F)c1 [Example 2-20-3, 2-[1-(4-ethoxy-2,6-difluorobenzyl)-1H-indazol-3-yl]-N-(pyrimidin-4-yl)-5-[1-(2,2,2-trifluoroethyl)piperidin-4-yl]pyrimidin-4-amine]",26 nM,2.2 nM,> 10000 nM,980 nM,–
"CCOc1cc(F)c(Cn2nc(-c3ncc(C4CCN(CC(F)(F)F)CC4)c(Nc4ccncc4OC)n3)c3ccccc32)c(F)c1 [Example 2-20-4, 2-[1-(4-ethoxy-2,6-difluorobenzyl)-1H-indazol-3-yl]-N-(3-methoxypyridin-4-yl)-5-[1-(2,2,2-trifluoroethyl)piperidin-4-yl]pyrimidin-4-amine]",70 nM,31 nM,1100 nM,66 nM,–
"CCOc1cc(F)c(Cn2nc(-c3ncc(C4CCN(CC(F)(F)F)CC4)c(Nc4ccnc(C)c4)n3)c3ccccc32)c(F)c1 [Example 2-20-5, 2-[1-(4-ethoxy-2,6-difluorobenzyl)-1H-indazol-3-yl]-N-(2-methylpyridin-4-yl)-5-[1-(2,2,2-trifluoroethyl)piperidin-4-yl]pyrimidin-4-amine]",68 nM,0.5 nM,3600 nM,210 nM,–
"CCOc1cc(F)c(Cn2nc(-c3ncc(C4CCN(CC(F)(F)F)CC4)c(Nc4cc(C)ncc4C)n3)c3ccccc32)c(F)c1 [Example 2-20-6, N-(2,5-dimethylpyridin-4-yl)-2-[1-(4-ethoxy-2,6-difluorobenzyl)-1H-indazol-3-yl]-5-[1-(2,2,2-trifluoroethyl)piperidin-4-yl]pyrimidin-4-amine]",260 nM,81 nM,3200 nM,130 nM,–
"CCOc1cc(F)c(Cn2nc(-c3ncc(CCNCC(F)(F)F)c(Nc4ccncc4Cl)n3)c3ccccc32)c(F)c1 [Example 2-20-14, N-(3-chloropyridin-4-yl)-2-[1-(4-ethoxy-2,6-difluorobenzyl)-1H-indazol-3-yl]-5-{2-[(2,2,2-trifluoroethyl)amino]ethyl}pyrimidin-4-amine]",48 nM,2.6 nM,> 10000 nM,120 nM,–
"CCOc1cc(F)c(Cn2nc(-c3nc4c(c(Nc5cc(C)ncn5)n3)CCC4)c3ccccc32)c(F)c1 [Example 2-21-1, 2-[1-(4-ethoxy-2,6-difluorobenzyl)-1H-indazol-3-yl]-N-(6-methylpyrimidin-4-yl)-6,7-dihydro-5H-cyclopenta[d]pyrimidin-4-amine]",–,1900 nM,6000 nM,98 nM,25 nM

# Source: US20170275270A1, “BENZYL SUBSTITUTED INDAZOLES” (Bayer Pharma Aktiengesellschaft, priority 2014, published 2017)
